According to patent US5153226A, “Acat inhibitors for treating hypocholesterolemia” (Warner-Lambert Company, priority 1990, dated 1992):

What was measured:
[1] = target: T1, acyl-CoA:cholesterol acyltransferase (ACAT) (Oryctolagus cuniculus, UniProt G1SFD9); assay: in vitro ACAT inhibition, acylation of cholesterol by oleic acid in tissue preparation containing rabbit intestinal microsomes; type: biochemical; conditions: concentration required to inhibit 50% expression of the enzyme
T1 construct: tissue preparation containing rabbit intestinal microsomes; from tissue; host or cells: rabbit intestinal microsomes
T1 sequence (G1SFD9 1-524): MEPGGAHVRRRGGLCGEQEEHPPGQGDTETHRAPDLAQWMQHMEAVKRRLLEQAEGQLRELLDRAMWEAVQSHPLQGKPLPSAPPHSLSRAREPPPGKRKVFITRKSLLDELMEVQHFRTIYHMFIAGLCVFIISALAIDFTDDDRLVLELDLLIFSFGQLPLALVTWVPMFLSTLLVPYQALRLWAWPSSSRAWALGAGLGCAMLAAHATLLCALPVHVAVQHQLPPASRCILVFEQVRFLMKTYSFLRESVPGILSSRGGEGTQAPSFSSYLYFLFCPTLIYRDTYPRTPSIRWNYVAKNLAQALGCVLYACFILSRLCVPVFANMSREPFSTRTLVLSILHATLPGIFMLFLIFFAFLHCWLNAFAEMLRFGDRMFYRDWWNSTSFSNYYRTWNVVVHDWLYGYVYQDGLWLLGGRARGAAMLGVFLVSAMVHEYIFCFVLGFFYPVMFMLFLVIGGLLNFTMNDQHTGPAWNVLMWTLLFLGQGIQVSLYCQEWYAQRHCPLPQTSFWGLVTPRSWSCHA
Procedure: The ability of representative compounds of the present invention to inhibit ACAT was measured using an in vitro test more fully described in Field, F. J. and Salone, R. G., Biochemica et Biophysica 712: 557-570 (1982). The test assesses the ability of a test compound to inhibit the acylation of cholesterol by oleic acid by measuring the amount of radio-labeled cholesterol oleate formed from radiolabeled oleic acid in a tissue preparation containing rabbit intestinal microsomes.
The data appear in Table 1 where they are expressed as IC50 values; i.e. the concentration of test compound required to inhibit 50% […] of the enzyme.

[2] = test system: cholesterol; assay: in vivo screen APCC, cholesterol in rats fed PCC diet with cholic acid; set-up: species or system male Sprague-Dawley rats; conditions: APCC rats dosed at 4 PM, PCC diet with 1% or 0.5% cholic acid overnight, blood cholesterol at 8 AM; dose not given
Excerpt: In one in vivo screen, designated APCC, male Sprague-Dawley rats (200 to 225 g) were randomly divided into treatment groups and dosed at 4 PM with either vehicle (CMC/Tween) or suspensions of compounds in vehicle. The normal, chow diet was then replaced with the PCC diet (RR 740-02122) with either 1% or 0.5% cholic acid, as indicated. The rats consumed this diet ad libitum during the night and were sacrificed at 8 AM to obtain blood samples for cholesterol analysis using standard procedures (RR 740-02122). Statistical differences between mean cholesterol values for the same vehicle were determined using analysis of variance followed by Fisher's least significant test.

Row | IC50 [1] [nM] | Structure (SMILES) | % Change (mg/dl) [2] [%]
1 | 1050 | CC(C)c1cccc(C(C)C)c1NC(=O)[C@H](Cc1ccc(O)cc1)NC(=O)OC(C)(C)C [Example 21, (S)-1,1-Dimethylethyl[2-[[2,6-bis-(1-methylethyl)phenyl]amino]-1-[(4-hydroxyphenyl)-methyl]-2-oxoethyl]carbamate] | 
2 | 350 | CC(C)c1cccc(C(C)C)c1NC(=O)[C@H](Cc1ccccc1)NC(=O)OC(C)(C)C [Example 41, (S)-α-N-(2,6-Diisopropylphenyl)benzenepropanamide] | 
3 | 960 | Cc1ccc(S(=O)(=O)N[C@@H](Cc2ccccc2)C(=O)Nc2c(C(C)C)cccc2C(C)C)cc1 [Example 52, (S)-N-[2,6-bis(1-Methylethyl)phenyl]-α-[[(4-methylphenyl)sulfonyl]amino]benzenepropanamide] | 

The remaining lines, values behind:

Row | Structure (SMILES) | IC50 [1] [nM] | % Change (mg/dl) [2] [%]
4 | CC(C)c1cccc(C(C)C)c1NC(=O)CNC(c1ccccc1)c1ccccc1 [Example 4, N-[2,6-bis(1-Methylethyl)phenyl]-2-[(diphenylmethyl)amino]acetamide] | 55 | -45
5 | CC(C)c1cccc(C(C)C)c1NC(=O)CN(CC1(c2ccccc2)CCCC1)C(=S)Nc1ccccc1 [Example 10, N-[2,6-bis(1-Methylethyl)phenyl]-2-[[(phenylamino)thioxomethyl][(1-phenylcyclopentyl)methyl]amino]acetamide] | 100 | -30
6 | CC(C)c1cccc(C(C)C)c1NC(=O)CN(CC1(c2ccccc2)CCCC1)C(=O)Nc1ccccc1 [Example 11, N-(2,6-bis(1-Methylethyl)phenyl]-2-[[(phenylamino)carbonyl][(1-phenylcyclopentyl)methyl]amino]-acetamide] |  | -3
7 | Cc1ccc(S(=O)(=O)N(CC(=O)Nc2c(C(C)C)cccc2C(C)C)CC2(c3ccccc3)CCCC2)cc1 [Example 14, N-[2,6-bis(1-Methylethyl)phenyl]-2-[[(4-methylphenyl)sulfonyl][(1-phenylcyclopentyl)methyl]amino]acetamide] |  | -24
